Assay results published in patent publication US8497371B2, “Pipemidic acid derivative autotaxin inhibitors” (University of Memphis Research Foundation, priority 2009, dated 2013).
“Also recorded” adds a separate entry of the source.

Columns and labels:
ATX [1] = biological target: T1, ATX (Homo sapiens, UniProt Q13822); assay: ATX inhibition assay with FS-3 substrate; assay type: biochemical; design: conditioned serum-free medium (CCM) from MDA-MB-435 cells as the source of ATX; endogenous in cells; host or cells: MDA-MB-435 cells (about 10x concentrated serum-free conditioned medium); settings: for % Response at 10 μM (FS-3): 10 μM compound, FS-3 hydrolysis normalized to vehicle control (low = strong inhibition), mean ± S.D.; for inhibition at 10 µM: single dose 10 μM, % inhibition, read-out: inhibition of ATX-mediated hydrolysis of FS-3; for single dose response comparison by aromatic substituent and position: Table 2, same values as % Response at 10 μM
Method: ATX inhibition was assayed using the substrate FS-3 (Echelon Biosciences, Inc., Salt Lake City, Utah, USA). The FS-3 assay used ˜10 times concentrated conditioned serum-free medium (CCM) from MDA-MB-435 cells as the source of ATX, while CCM comprised one-third of the total volume.
All assays were performed in 96-well plates with data read at 1 minute intervals by a Synergy2 system (BioTek, Winooski, Vt.). […] Results are shown at one hour, at which point all fluorescence and absorbance changes as a function of time were linear. All readings were normalized to vehicle control after subtraction of fluorescence in the absence of CCM. Data are shown as the mean±S.D. of at least three wells. All experiments were repeated at least twice and results are shown.

ATX [2] = biological target: T1, ATX; settings: for Inhibition Mechanism: FS-3 substrate
ATX [3] = biological target: T1, ATX; assay: biochemical
human NPP7 = biological target: T2, human NPP7 (Homo sapiens, UniProt Q6UWV6); assay: Determination of NPP7 inhibition (pNPPC substrate); assay type: biochemical; settings: 10 μM inhibitor
T2 construct: transfected with human NPP6ex^51 or human NPP7ex expression plasmids; made in house; host or cells: HEK293 cells, transient transfection, pcDNA3.1(+); conditioned medium concentrated about 10x (CCM)
T2 sequence (Q6UWV6 22-433 limits assumed): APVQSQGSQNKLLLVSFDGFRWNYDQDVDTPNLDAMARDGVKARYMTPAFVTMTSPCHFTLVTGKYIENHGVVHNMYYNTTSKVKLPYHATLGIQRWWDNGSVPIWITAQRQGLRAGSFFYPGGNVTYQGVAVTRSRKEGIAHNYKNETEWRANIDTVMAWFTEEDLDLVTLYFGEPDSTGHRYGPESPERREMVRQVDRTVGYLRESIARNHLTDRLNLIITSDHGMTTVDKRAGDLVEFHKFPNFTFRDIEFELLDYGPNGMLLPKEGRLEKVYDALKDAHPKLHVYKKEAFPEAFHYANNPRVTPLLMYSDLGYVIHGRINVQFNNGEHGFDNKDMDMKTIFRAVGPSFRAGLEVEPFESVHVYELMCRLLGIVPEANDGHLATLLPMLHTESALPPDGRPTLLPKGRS
Method: (§1) Inhibitor selectivity was assayed using p-nitrophenylphosphoryl-choline (pNPPC) (Sigma-Aldrich, St. Louis, Mo.) as substrate for NPP6 and NPP7. The final volume (60 μL) included 20 μL (CM, NPP6 or CCM, NPP7, 20 μL inhibitor (10 μM including 1% DMSO) in assay buffer, and 20 μL pNPPC (10 mM, NPP6 or 1 NPP7) in assay buffer. NPP6 assay buffer contained 500 mM NaCl, 0.05% Triton X-100, 100 mM Tris-HCl (pH 9.0), whereas NPP7 assay buffer was comprised of 50 mM Tris HCl, pH 8.5, 150 mM NaCl, and 10 mM taurocholic acid. However, unlike the published methods, EDTA was not added to the NPP7 assay buffer. All assays were performed in 96-well, half area plates (Corning Inc., Lowell, Mass.) at 37° C. with data collected at 2 minute intervals using a Synergy2 absorbance plate reader (BioTek, Winooski, Vt.). Results are shown at the one hour time point, when all absorbance changes as a function of time were linear. Readings were normalized to vehicle control after subtraction of absorbance in the absence of CM or CCM. Data are shown as the mean±S.D. of at least three wells. All experiments were repeated twice and representative results are shown.
(§2) Assays were performed with CM or CCM from HEK293 cells transiently transfected with NPP6 and 7 expression plasmids, respectively. HEK293 cells were seeded in Dulbecco's modified Eagle's medium (DMEM) containing 10% fetal bovine serum, 100 U/ml penicillin, 100 μg/ml streptomycin (Hyclone, Logan, Utah), and 2 mM L-glutamine. HEK293 cells were grown overnight at 37° C. under 5% CO2 to 80% confluence. The cells were then transfected with human NPP6ex^51 or human NPP7ex expression plasmids in the pcDNA3.1(+) mammalian vector in the presence of Polyfect Transfection Reagent (Hyclone, Logan, Utah). Six hours after transfection, the culture medium was changed to serum free DMEM containing L-glutamine and cells were incubated for 48 hours. Expressed protein was collected (NPP6 and NPP7) and concentrated ˜10×(NPP7) using 10 kDa molecular weight cutoff filters (Millipore, Beverly, Mass.) in an Amicon pressure cell (Millipore, Beverly, Mass.).

human NPP6 = biological target: T3, human NPP6 (Homo sapiens, UniProt Q6UWR7); assay: Determination of NPP6 inhibition (pNPPC substrate); assay type: biochemical; settings: 10 μM inhibitor
T3 construct: transfected with human NPP6ex^51 or human NPP7ex expression plasmids; made in house; host or cells: HEK293 cells, transient transfection, pcDNA3.1(+); unconcentrated conditioned medium (CM)
T3 sequence (Q6UWR7 23-419 limits assumed): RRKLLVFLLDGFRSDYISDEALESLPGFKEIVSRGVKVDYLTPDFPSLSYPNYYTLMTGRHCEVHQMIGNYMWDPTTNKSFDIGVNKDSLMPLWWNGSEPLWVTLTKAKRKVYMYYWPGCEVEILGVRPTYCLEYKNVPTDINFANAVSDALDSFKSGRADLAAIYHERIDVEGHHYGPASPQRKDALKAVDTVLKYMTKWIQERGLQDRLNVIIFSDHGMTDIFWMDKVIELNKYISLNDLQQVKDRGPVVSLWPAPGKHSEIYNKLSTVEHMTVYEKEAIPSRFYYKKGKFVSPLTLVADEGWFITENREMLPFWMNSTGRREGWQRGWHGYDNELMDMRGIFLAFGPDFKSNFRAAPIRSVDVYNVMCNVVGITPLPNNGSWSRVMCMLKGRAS
Method: as §1, §2

[4] = Ki (μM), FS-3 substrate, for mixed mode Ki=IC50 assumed

Row | SMILES | % Response at 10 μM (FS-3) (ATX [1]) | IC50 (ATX [1]; FS-3 substrate) | IC50 (ATX [1]; Substrate FS-3 (1 μM)) | inhibition at 10 µM (ATX [1]) | mechanism of ATX inhibition (ATX [2]) | potency relative to the lead compound (ATX [2]) | Inhibition Mechanism (ATX [2]) | Ki (ATX [3]; Ki) | Ki (ATX [3]; Ki (nM), competitive inhibitors) | effect on activity of NPP7 (human NPP7) | effect on activity of NPP6 (human NPP6) | Ki (ATX [3]; [4]) | single dose response comparison by aromatic substituent and position (ATX [1])
1 | CCn1cc(C(=O)O)c(=O)c2cnc(N3CCN(C(=S)Nc4cc(C(F)(F)F)cc(C(F)(F)F)c4)CC3)nc21 [Compound 18, 2-(4-{[(3,5-bis(trifluoromethyl)phenyl)amino]carbonothioyl}-1-piperazinyl)-8-ethyl-5-oxo-5,8-dihydropyrido[2,3-d]pyrimidine-6-carboxylic acid] | 34.1 ± 3.0% | 4.4 ± 1.5 µM | 4.4 ± 1.5 µM | ≥ 50% | competitive | at least as potent as the lead compound | Competitive | 160 nM | 30 to 430 nM | None of the compounds affected the activity | None of the compounds affected the activity | – | –
2 | CCn1cc(C(=O)O)c(=O)c2cnc(N3CCN(C(=S)Nc4cc(C)cc(C)c4)CC3)nc21 [Compound 22, 2-(4-{[(3,5-dimethylphenyl)amino]carbonothioyl}-1-piperazinyl)-8-ethyl-5-oxo-5,8-dihydropyrido[2,3-d]pyrimidine-6-carboxylic acid] | 30.4 ± 1.3% | 9 µM | – | ≥ 50% | mixed-mode | as potent as or significantly less potent than the lead | Mixed | 1700 to 13500 nM | – | None of the compounds affected the activity | None of the compounds affected the activity | 9000 nM | –
3 | CCn1cc(C(=O)O)c(=O)c2cnc(N3CCN(C(=S)Nc4ccc(Cl)cc4)CC3)nc21 [Compound 28, 2-(4-{[(4-chlorophenyl)amino]carbonothioyl}-1-piperazinyl)-8-ethyl-5-oxo-5,8-dihydropyrido[2,3-d]pyrimidine-6-carboxylic acid] | 42.4 ± 0.9% | 10.7 µM | – | ≥ 50% | mixed-mode | as potent as or significantly less potent than the lead | Mixed | 1700 to 13500 nM | – | None of the compounds affected the activity | None of the compounds affected the activity | 10700 nM | 42.4 ± 0.9
4 | CCn1cc(C(=O)O)c(=O)c2cnc(N3CCN(C(=S)Nc4ccc(C(F)(F)F)cc4)CC3)nc21 [Compound 31, 2-(4-{[(4-trifluoromethylphenyl)amino]carbonothioyl}-1-piperazinyl)-8-ethyl-5-oxo-5,8-dihydropyrido[2,3-d]pyrimidine-6-carboxylic acid] | 36.2 ± 0.9% | 1.5 µM | 1.5 µM | ≥ 50% | uncompetitive | at least as potent as the lead compound; also recorded: approximately equivalent to the lead | Uncompetitive | – | – | None of the compounds affected the activity | None of the compounds affected the activity | 1400 nM | 36.2 ± 0.9
